We go through 15 compounds from patent US20120202819A1, “COMBINATION THERAPY USING A BETA 3 […] RECEPTOR AGONISTS AND AN […] AGENT” (Merck Sharp & Dohme Corporation, priority 2009, published 2012).

Structures are written as SMILES. Read-outs that look alike come from different tables or passages of the source. Some results are limits rather than exact numbers.

Assay [1] concerns the target T1, human β3 adrenergic receptor (Homo sapiens, UniProt P13945).
T1 construct: expressed in transfected cells; host or cells: Chinese hamster ovary (CHO) cells, stably transfected
The experiment in a line: Functional assay: cAMP production in CHO cells transfected with cloned β-adrenergic receptor. The format is cell-based. How it is done: Biological Assays for β3 Functional Activities: The following in vitro assays are suitable for screening compounds that have selective β3 agonist activity:
Functional Assay: cAMP production in response to ligand is measured according to Barton, et al. (1991, Agonist-induced desensitization of D2 dopamine receptors in human Y-79 retinoblastoma cells. Mol. Pharmacol. […]) modified as follows. cAMP production is measured using a homogenous time-resolved fluorescence resonance energy transfer immunoassay (LANCE™, Perkin Elmer) according to the manufacture's instructions. Chinese hamster ovary (CHO) cells, stably transfected with the cloned 13-adrenergic receptor (β1, β2 or β3) are harvested after 3 days of subculturing. Harvesting of cells is done with Enzyme-free Dissociation Media (Specialty Media). Cells are then counted and resuspended in assay buffer (Hank's Balanced salt solution supplemented with 5 mM HEPES, 0.1% BSA) containing a phosphodiesterase inhibitor (IBMX, 0.6 mM). The reaction is initiated by mixing 6,000 cells in 6 with 6 μL Alexa Fluor labeled cAMP antibody (LANCE™ kit) which is then added to an assay well containing 12 μL of compound (diluted in assay buffer to 2× final concentration). The reaction proceeds for 30 min at room temperature and is terminated by the addition of 24 detection buffer (LANCE™ kit). The assay plate is then incubated for 1 h at room temperature and time-resolved fluorescence measured on a Perkin Elmer Envision reader or equivalent. The unknown cAMP level is determined by comparing fluorescence levels to a cAMP standard curve.
The non-selective, full agonist 13-adrenergic ligand isoproterenol is used at all three receptors to determine maximal stimulation. The human β3 adrenergic receptor (AR) selective ligand (S)-N-[4-[2-[[2-hydroxy-3-(4-hydroxyphenoxy)propyl]amino]ethyl]-phenyl]-4-iodobenzenesulfonamide is used as a control in all assays. […] Data are analyzed using Microsoft Excel and Graphpad Prism or an internally developed data analysis software package.

The subject of assay [2] is EFS-induced isolated detrusor muscle contractions. Kind of assay: EFS-induced contraction of isolated rat detrusor muscle strips, with isobologram analysis. Also noted: species or system Sprague-Dawley rats. The protocol: Male adult Sprague-Dawley rats were used. After euthanizing using CO2 gas, a whole bladder was removed. Longitudinal strips (about 6 mm×3 mm) of the extratrigonal portion of the detrusor muscle were prepared. […] The strips were tied at one end to the organ bath, and connected at the other end to an isometric transducer (AD Instruments) under a resting tension of 10 mN. The responses of the preparations were recorded at a sampling rate of 10 Hz by a multiple channel data acquisition system (PowerLab, AD Instruments), and measured with an analysis software (Chart, AD Instruments). After the equilibration period for at least 60 min, each tissue strip was challenged to electrical field stimulation (EFS) at 60 Hz; duration, 0.3 ms; 3 sec; 90 V to induce contractions. Upon obtaining stable contractions with EFS, compound solution (25 μL) was applied into organ bath in a cumulative manner. After 15 min of each compound treatment, EFS was applied.
Isobologram Analysis was used to evaluate the synergic effect of a combination therapy. Isobologram Analysis provides a visual assessment of the interaction of two different agents using independent statistical analysis. The statistical analysis can be accomplished from calculations of certain potency indices from single treatment of each compound and fixed-ratio combinations for the same effect.
Isobologram for some particular effect (e.g., 50% of the maximum) in which the dose of active agent A alone is A=20 and active agent B alone is B=100. The straight line connecting these intercept points (additivity line) is the locus of all dose pairs that, based on these potencies, should give the same effect, An actual dose pair such as point Q attains this effect with lesser quantities and is synergistic (or super-additive), while the dose pair denoted by point R means greater quantities are required and is therefore sub-additive.

Assay [3] concerns bladder capacity. Kind of assay: Bladder capacity (cystometry) in anesthetized rhesus monkeys. The format is in vivo, rhesus monkeys (Macaca mulatta). The note with it: mean of 4-6 animals. An excerpt: Adult female rhesus monkeys (Macaca mulatta) weighed 5.3-6.2 kg (4-7 year-old) were used. The subjects were either paired or individually housed on a 12-h light/12-h dark cycle (lights on at 7:00 AM). Their diet consisted of 2050 Teklad (Harlan Laboratories, Indianapolis, Ind.) and fresh fruit or vegetable. Water was freely available. All animals were observed daily by a veterinary technician and caretakers for signs of ill health. Subjects were repeatedly used with >13-day resting period. Monkeys were anesthetized with an intramuscular injection of either Telazol (3-5 mg/kg) or ketamine (10-20 mg/kg) followed by intravenous constant rate infusion with ketamine (0.2-0,8 mg/kg/min) using a syringe pump (552222, Harvard Apparatus, Holliston, Mass.). Animals were placed in a supine position and a triple lumen balloon transurethral catheter (7.4 Fr, Cook Medical, Bloomington, Ind.) was inserted into the bladder and the balloon was inflated with 1 mL of water to secure the tip of catheter at the bladder base. The catheter was connected with an infusion pump (Gemini PC-2TX, ALARIS Medical Systems, San Diego, Calif.) for bladder filling and a pressure transducer for intravesical pressure monitoring. Intravesical pressure was continuously recorded using a multiple channel data acquisition system (Power lab, AD Instruments, Biopac systems, Colorado Springs, Colo.) at a sampling rate of 20 Hz. After confirming bladder emptiness by an ultrasonography (Logiq e vet, GE Medical Systems, Waukesha, Wis., FIG. 1A), saline was intravesically infused at 15 mL/min. When the steep rise in pressure indicative of the micturition reflex was observed, intravesical infusion was stopped and the bladder was manually emptied with a 60 ml syringe.
After two baseline cystometry readings, drug was intravenously administered three times using a rising dose paradigm with a cystometry performed 10 min after each dose. Bladder capacity was measured for each cystometry and % change from the baseline capacity was calculated. As used herein, the term “baseline capacity” or “baseline” means the average bladder capacity from two pre-dose measurements.
The reported results are mean values of % change from baseline in 4-6 animals.

In assay [4] the target is T2, muscarinic receptor M4 (Homo sapiens, UniProt P08173).
T2 sequence (P08173 1-479): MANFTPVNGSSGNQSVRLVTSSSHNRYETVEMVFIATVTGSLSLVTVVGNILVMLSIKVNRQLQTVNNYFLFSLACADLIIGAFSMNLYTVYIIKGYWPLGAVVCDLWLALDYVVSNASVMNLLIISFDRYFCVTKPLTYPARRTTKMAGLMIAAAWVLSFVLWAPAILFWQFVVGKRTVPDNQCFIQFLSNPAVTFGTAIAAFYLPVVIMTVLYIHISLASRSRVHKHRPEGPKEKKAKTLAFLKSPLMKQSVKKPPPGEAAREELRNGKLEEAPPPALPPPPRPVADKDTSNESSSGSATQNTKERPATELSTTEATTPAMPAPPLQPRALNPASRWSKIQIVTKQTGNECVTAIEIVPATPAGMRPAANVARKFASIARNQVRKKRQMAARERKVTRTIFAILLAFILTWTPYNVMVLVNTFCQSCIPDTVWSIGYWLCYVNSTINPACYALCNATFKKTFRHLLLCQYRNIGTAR
As to conditions: Ohtake et al.; cited from earlier work.

The mark [5] stands for this setting: cAMP, CHO cells, read-out: human β3 functional activity.
[6] abbreviates: human β3 functional activity, read-out: HUMAN β3 BINDING.

T1 sequence (P13945 whole entry): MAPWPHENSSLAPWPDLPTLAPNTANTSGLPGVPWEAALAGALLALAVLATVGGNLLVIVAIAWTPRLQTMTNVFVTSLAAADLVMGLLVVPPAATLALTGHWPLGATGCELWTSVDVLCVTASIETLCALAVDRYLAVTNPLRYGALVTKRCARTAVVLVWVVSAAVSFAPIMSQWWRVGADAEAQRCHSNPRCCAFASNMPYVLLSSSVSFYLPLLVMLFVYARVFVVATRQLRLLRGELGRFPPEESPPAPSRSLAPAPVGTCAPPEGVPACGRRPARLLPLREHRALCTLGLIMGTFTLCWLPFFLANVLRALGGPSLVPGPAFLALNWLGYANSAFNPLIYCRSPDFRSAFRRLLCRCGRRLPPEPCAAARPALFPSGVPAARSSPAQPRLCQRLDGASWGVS

As to `Nc1nc(CC(=O)Nc2ccc(CC3CC[C@H]([C@H](O)c4ccccc4)N3)cc2)cs1` (stereo partly drawn) [Compound 1, 2-(2-Amino-1,3-thiazol-4-yl)-N-[4-({(5R)-[(R)-hydroxy(phenyl)methyl]pyrrolidinyl}methyl)phenyl]acetamide], the EC50 in assay [1] (setting [5]) fell in the range of 0.001 to 0.01 µM.
On the same count and under the same terms, in the case of `Nc1nc(CC(=O)Nc2ccc(C[C@@H]3CC[C@H]([C@H](O)c4ccccc4)N3)cc2)cs1` [Compound 2, 2-(2-Amino-1,3-thiazol-4-yl)-N-[4-({(2S, 5R)-[(R)-hydroxy(phenyl)methyl]pyrrolidinyl}methyl)phenyl]acetamide] it was 0.001 to 0.01 µM; in that of `Nc1nc2c(s1)CCC2C(=O)Nc1ccc(C[C@@H]2CC[C@H]([C@H](O)c3ccccc3)N2)cc1` (stereo partly drawn) [Compound 3], less than 0.001 µM.
For `O=C(Cn1cnc2ccccc2c1=O)Nc1ccc(C[C@@H]2CC[C@H]([C@H](O)c3ccccc3)N2)cc1` [Compound 4], in assay [1] (setting [6]), the EC50 fell in the range of 0.001 to 0.01 µM.
Consider `O=C(Cn1ncccc1=O)Nc1ccc(C[C@@H]2CC[C@H]([C@H](O)c3ccccc3)N2)cc1` [Compound 5], for which the EC50 in assay [1] (setting [6]) was 0.001 to 0.01 µM.
With `Cc1cnn(CC(=O)Nc2ccc(C[C@@H]3CC[C@H]([C@H](O)c4ccccc4)N3)cc2)c(=O)c1` [Compound 6], in assay [1] (setting [6]), the EC50 was in the range of 0.001 to 0.01 µM.
On the same count and under the same terms, under `O=C(Cn1ncc2ccccc2c1=O)Nc1ccc(C[C@@H]2CC[C@H]([C@H](O)c3ccccc3)N2)cc1` [Compound 7] stands 0.001 to 0.01 µM.
On the same count and under the same terms, under `O=C(Cn1cccnc1=O)Nc1ccc(C[C@@H]2CC[C@H]([C@H](O)c3ccccc3)N2)cc1` [Compound 8] stands 0.001 to 0.01 µM; under `O=C(Cn1cnccc1=O)Nc1ccc(C[C@@H]2CC[C@H]([C@H](O)c3ccccc3)N2)cc1` [Compound 9], 0.001 to 0.01 µM; under `O=C(Cn1ccccc1=O)Nc1ccc(C[C@@H]2CC[C@H]([C@H](O)c3ccccc3)N2)cc1` [Compound 10], 0.001 to 0.01 µM.
Regarding `Cc1ncn(C(C)C(=O)Nc2ccc(C[C@@H]3CC[C@H]([C@H](O)c4ccccc4)N3)cc2)n1` (stereo partly drawn) [Compound 11], the EC50 in assay [1] (setting [5]) fell in the range of 0.001 to 0.01 µM.
Regarding `O=C(Nc1ccc(C[C@@H]2CC[C@H]([C@H](O)c3ccccc3)N2)cc1)[C@@H]1CCc2cccc(=O)n21` [Compound 12, (3S)-N-[4-({(2S,5R)-5-[(R)-hydroxy(phenyl)methyl]pyrrolidin-2-yl}methyl)phenyl]-5-oxo-1,2,3,5-tetrahydroindolizine-3-carboxamide], the EC50 in assay [1] (setting [5]) lay within 0.001 to 0.01 µM. In assay [2] (inhibiting EFS-induced contraction of rat bladder strips), the “times less potent than CL316243 (IC25)” value was roughly 100 times. The “IC25 (concentration which induced 25% inhibition of detrusor contraction)” value in assay [2] (single compound, rat bladder strips, EFS) was found to be 0.275 µM.
Consider `O=C(Nc1ccc(C[C@@H]2CC[C@H]([C@H](O)c3ccccc3)N2)cc1)[C@H]1CCc2cccc(=O)n21` [Compound 13, (3R)-N-[4-({(2S,5R)-5-[(R)-hydroxy(phenyl)methyl]pyrrolidin-2-yl}methyl)phenyl]-5-oxo-1,2,3,5-tetrahydroindolizine-3-carboxamide], for which the EC50 in assay [1] (setting [5]) is less than 0.001 µM.
As to `O=C(Nc1ccc(C[C@@H]2CC[C@H]([C@H](O)c3ccccc3)N2)cc1)[C@@H]1CCc2nccc(=O)n21` [Compound 14, (6S)-N-[4-({(2S, 5R)-5-[(R)-hydroxy(phenyl)methyl]pyrrolidin-2-yl}methyl)phenyl]-4-oxo-4,6,7,8-tetrahydropyrrolo[1,2-α]pyrimidine-6-carboxamide], the EC50 in assay [1] (setting [5]) lay within 0.011 to 0.1 µM. The “Bladder capacity, % change from baseline” value is given as 4.1% in assay [3] (mono-therapy 0.003 mg/kg iv); 4.1% in assay [3] (mono-therapy 0.003 mg/kg iv, listed as Cpd 14); 18.0% in assay [3] (mono-therapy 0.01 mg/kg iv); 27.3% in assay [3] (mono-therapy 0.03 mg/kg iv); 33.9% in assay [3] (mono-therapy 0.1 mg/kg iv); 31% in assay [3] (mono-therapy 0.3 mg/kg iv). In assay [3] (mono-therapy 1 mg/kg iv), the “Bladder capacity, % change from baseline” value was determined as 55.9%.
With `NC(=O)C(c1ccccc1)(c1ccccc1)[C@@H]1CCN(CCc2ccc3c(c2)CCO3)C1` [Darifenacin, (S)-2-[1-[2-(2,3-dihydrobenzofuran-5-yl)ethyl]pyrrolidin-3-yl]-2,2-diphenyl-acetamide], in assay [4], the Ki was 52 ± 15 nM. The “Bladder capacity, % change from baseline” value came out at 8.9% in assay [3] (mono-therapy 0.01 mg/kg iv), 18.3% in assay [3] (mono-therapy 0.03 mg/kg iv) and 29.4% in assay [3] (mono-therapy 0.1 mg/kg iv).
